The values that follow come from patent US11629341B2, “Method for producing selenoneine” (KIKKOMAN CORPORATION, priority 2015, dated 2023).

Data set [1] has as its system E. coli. Description: main culture of transformed E. coli in TY medium containing selenocystine. It counts as cell-based. Particulars: TY++ line: 0.1 mM selenocystine present during the initial stage of culture, 25° C. On the procedure: In a 19 ml test tube, each of the bacterial strains shown in Table 13 was inoculated into 2.5 ml of a TY medium. The inoculated medium was then seed-cultured at 37° C. for 16 hours while agitated at 180 rpm. In a 19 ml test tube, 20 μl of the seed culture was inoculated into 2.5 ml of a TY medium containing ampicillin and 0.5 mM IPTG. The inoculated medium was then main-cultured at 25° C. for 20.5 hours while agitated at 180 rpm. Three different lines of TY medium were prepared for the main culture: a TY medium containing 0.1 mM selenocystine (TY++), a TY medium containing 0.01 mM selenocystine (TY+), and a TY medium to which selenocystine was added to 0.01 mM six hours after the start of culture (TY+∘).
In addition, the amount of selenoneine produced by the (EcEgtA+EcEgtC) transformant was higher than that of the EcEgtA transformant and the difference between the two transformants was more significant in the culture supernatants.

The conditions of data set [2]: compared with ergothioneine; cited from earlier work.

On to `N[C@@H](C[Se][Se]C[C@H](N)C(=O)O)C(=O)O` [selenocystine], for which the growth inhibition result in data set [1] is “caused growth inhibition”.
Turning to `C[N+](C)(C)[C@@H](Cc1cnc([Se-])[nH]1)C(=O)O` [selenoneine], the “antioxidant activity relative to ergothioneine” value in data set [2] is on record as 1,000 times.
